According to patent publication US20130190278A1, “Compounds for the Treatment/Prevention of Ocular Inflammatory Diseases” (Laboratoires Fournier SA, priority 2010, published 2013):

Test system: dry eye induced by scopolamine and extractor hood
Assay: Dry eye model (scopolamine + desiccation), tear production by Phenol Red test (PRTT)
Type: in vivo, mice
Details: instillations of 0.1% twice a day
Protocol: Dry eye is induced in mice by the combination of scopolamine, which blocks the muscarinic cholinergic receptors of lacrimal glands, and by placing the mice in an extractor hood that reduces humidity and increases air flow. The production and volume of aqueous tears, tear clearance, and the corneal barrier function are evaluated before treatment, and then twice a week after treatment. The results are compared between groups of untreated control mice, and groups of mice placed in the extractor hood, treated with the anticholinergic agent scopolamine, treated or not with tresperimus.
Male 129SV/CD-1 mice were used in this study and received three sub-cutaneous injections of 200 μl of scopolamine at 2.5 mg/mL in saline for 21 days. The mice were placed in an extractor hood (humidity <50%) during the whole experiment.
Tear production (PRTT) was measured with cotton threads impregnated with Phenol Red (Zone-quick; Menicon, Japan) applied to the ocular surface in the lateral canthus for 60 seconds. Wetting of the thread was measured in millimeters, using the scale on the cotton thread.

C[C@@H]1C[C@H]2[C@@H]3CCC4=CC(=O)C=C[C@]4(C)[C@@]3(F)[C@@H](O)C[C@]2(C)[C@@]1(O)C(=O)CO [dexamethasone]
Tear volume (Phenol Red test): no significant effect
